Reference: the NIST ThermoML archive (doi:10.1021/acs.jced.7b00866)

Conditions: Liquid, Capillary tube (Ostwald / Ubbelohde) method

CCCCCCCCCCCC [dodecane]
Conditions	viscosity [mPa·s]
298.2 K, 6020 kPa	1.461
298.2 K, 8050 kPa	1.497
298.2 K, 10020 kPa	1.533
303.3 K, 10020 kPa	1.394
303.4 K, 8050 kPa	1.365
304.9 K, 6020 kPa	1.348
313.3 K, 10020 kPa	1.184
313.4 K, 8000 kPa	1.162
314.5 K, 5990 kPa	1.135
323.1 K, 8010 kPa	1.007
323.4 K, 6050 kPa	0.9748
323.4 K, 10000 kPa	1.021
333.3 K, 8030 kPa	0.8787
333.4 K, 10000 kPa	0.8918
334.1 K, 6010 kPa	0.8555
343.2 K, 8070 kPa	0.7787
343.3 K, 5990 kPa	0.7562
343.3 K, 10010 kPa	0.79
353.4 K, 6080 kPa	0.6746
353.4 K, 9980 kPa	0.703
353.6 K, 8020 kPa	0.6919
363.3 K, 10050 kPa	0.6332
363.7 K, 8020 kPa	0.6209
364 K, 6040 kPa	0.6028
373.1 K, 10070 kPa	0.5743
373.9 K, 8020 kPa	0.5622
374 K, 6000 kPa	0.5462
383 K, 6010 kPa	0.5011
383.2 K, 10000 kPa	0.523
383.4 K, 8050 kPa	0.5137
393 K, 10020 kPa	0.4798
393.1 K, 6080 kPa	0.4584
393.6 K, 8030 kPa	0.4694
403 K, 6040 kPa	0.4213
403.1 K, 10040 kPa	0.4407
404.1 K, 8020 kPa	0.4304
412.9 K, 10010 kPa	0.4076
413.2 K, 6080 kPa	0.3885
413.7 K, 7990 kPa	0.3987
423 K, 6080 kPa	0.3581
423.4 K, 10000 kPa	0.3765
423.9 K, 8050 kPa	0.3686
432.9 K, 10020 kPa	0.3504
433.2 K, 6010 kPa	0.3334
433.3 K, 8000 kPa	0.3405
443.2 K, 10050 kPa	0.3257
443.5 K, 6020 kPa	0.3092
443.5 K, 8010 kPa	0.3152
453.3 K, 6020 kPa	0.2855
453.3 K, 9950 kPa	0.3036
454 K, 8040 kPa	0.2936
463.3 K, 10010 kPa	0.2839
463.4 K, 6040 kPa	0.2664
464.1 K, 8020 kPa	0.2738
473.3 K, 10050 kPa	0.2657
473.4 K, 6040 kPa	0.251
473.5 K, 8010 kPa	0.2525
483.4 K, 6050 kPa	0.2305
483.4 K, 8080 kPa	0.2405
483.4 K, 10000 kPa	0.2489
493.2 K, 10050 kPa	0.2338
